According to patent US20180250403A1, “CONJUGATES” (AGENCY FOR SCIENCE, TECHNOLOGY AND RESEARCH, priority 2015, published 2018):

System: B16F10 cells
Assay: Cell proliferation / cytotoxicity (Incucyte) with and without light irradiation
Assay type: cell-based, murine
Conditions: B16F10, 10 uM
Description: Murine melanoma B16F10 cells were seeded at 3000-4000 cells per well in 96 well black view plate Perkin Elmer plates in DMEM media without phenol, as phenol red may interfere in the absorption of light. After overnight incubation, media was aspirated from the wells and varying concentrations of photosensitizers were added to the cells. Cells were incubated for 4 hours in dark at 37° C., after 4 hours cells were washed twice with 1×PBS and 300 μL of media was added to the wells before placing the plates in Incucyte ZOOM Live cell imaging machine to capture the images after every hour. Percentage confluence was measured over a time period. Similar approach was taken for keratinocyte cell lines NTERT-1 except the starting confluence was 75-85%. This is to mimic the physiological situation in the body where keratinocytes are present in much larger numbers than melanocytes. […]
Mouse melanoma cells B16-F10, human skin keratinocytes N-TERT-1 and primary human melanocytes MeL at cell densities of 4000 cells/well, 6000 cells/well and 3500 cells/well respectively were seeded to achieve similar starting confluence in 96-black Perkin-Elmer well plate in DMEM medium without phenol red (for B16F10 and MeL) and KSFM media (for N/TERT-1 cells) and kept for overnight at 37° C. […] Percentage confluence was measured over a time period. […]

Question: Which cytotoxicity in dark does the source give for `CN(C)c1ccc2nc3ccc(=[N+](C)C)cc-3sc2c1` [MB, methylene blue] here?
Answer: Its cytotoxicity in dark is “no cytotoxicity”.
